Experimental data: patent publication US9481670B2, “Triazine compounds” (Sphaera Pharma PTE. Ltd., priority 2011, dated 2016)
pIC50: −log10 of the molar value.

These molecules were tested against T1, PI3K alpha (Homo sapiens, UniProt P42336) (assay: P110 Alpha TR-FRET Assay (PI3K alpha kinase assay, HTRF Transcreener ADP Assay)). Conditions: PI3K (WT).
T1 construct: purchased Millipore Upstate
T1 sequence (P42336 whole entry): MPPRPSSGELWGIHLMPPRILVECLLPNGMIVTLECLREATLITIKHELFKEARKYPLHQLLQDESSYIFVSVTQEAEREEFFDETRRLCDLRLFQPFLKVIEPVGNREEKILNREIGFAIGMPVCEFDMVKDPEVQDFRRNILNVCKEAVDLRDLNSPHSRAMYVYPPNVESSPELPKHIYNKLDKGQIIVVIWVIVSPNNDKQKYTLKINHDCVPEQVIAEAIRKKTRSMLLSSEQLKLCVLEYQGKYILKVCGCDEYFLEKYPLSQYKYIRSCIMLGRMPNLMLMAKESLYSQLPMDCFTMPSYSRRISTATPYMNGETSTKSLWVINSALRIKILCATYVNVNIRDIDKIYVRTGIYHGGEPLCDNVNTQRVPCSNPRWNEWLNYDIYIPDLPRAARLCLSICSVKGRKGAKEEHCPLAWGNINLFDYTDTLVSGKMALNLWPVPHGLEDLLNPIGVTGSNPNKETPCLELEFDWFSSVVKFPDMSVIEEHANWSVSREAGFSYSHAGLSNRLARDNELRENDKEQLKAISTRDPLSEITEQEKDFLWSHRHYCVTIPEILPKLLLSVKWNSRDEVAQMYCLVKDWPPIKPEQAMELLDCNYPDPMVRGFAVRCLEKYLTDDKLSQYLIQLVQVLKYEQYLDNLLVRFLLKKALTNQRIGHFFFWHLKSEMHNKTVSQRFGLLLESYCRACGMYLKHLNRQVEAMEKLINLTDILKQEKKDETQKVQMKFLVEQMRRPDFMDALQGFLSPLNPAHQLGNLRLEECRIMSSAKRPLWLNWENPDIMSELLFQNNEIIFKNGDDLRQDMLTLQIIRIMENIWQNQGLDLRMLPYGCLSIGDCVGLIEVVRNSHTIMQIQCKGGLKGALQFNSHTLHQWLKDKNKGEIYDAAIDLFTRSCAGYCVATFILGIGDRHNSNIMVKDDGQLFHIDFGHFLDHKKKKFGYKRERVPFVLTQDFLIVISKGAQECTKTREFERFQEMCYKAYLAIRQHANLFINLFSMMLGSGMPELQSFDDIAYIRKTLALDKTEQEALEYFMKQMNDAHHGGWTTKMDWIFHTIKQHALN
T1 sequence (P27986 whole entry partner): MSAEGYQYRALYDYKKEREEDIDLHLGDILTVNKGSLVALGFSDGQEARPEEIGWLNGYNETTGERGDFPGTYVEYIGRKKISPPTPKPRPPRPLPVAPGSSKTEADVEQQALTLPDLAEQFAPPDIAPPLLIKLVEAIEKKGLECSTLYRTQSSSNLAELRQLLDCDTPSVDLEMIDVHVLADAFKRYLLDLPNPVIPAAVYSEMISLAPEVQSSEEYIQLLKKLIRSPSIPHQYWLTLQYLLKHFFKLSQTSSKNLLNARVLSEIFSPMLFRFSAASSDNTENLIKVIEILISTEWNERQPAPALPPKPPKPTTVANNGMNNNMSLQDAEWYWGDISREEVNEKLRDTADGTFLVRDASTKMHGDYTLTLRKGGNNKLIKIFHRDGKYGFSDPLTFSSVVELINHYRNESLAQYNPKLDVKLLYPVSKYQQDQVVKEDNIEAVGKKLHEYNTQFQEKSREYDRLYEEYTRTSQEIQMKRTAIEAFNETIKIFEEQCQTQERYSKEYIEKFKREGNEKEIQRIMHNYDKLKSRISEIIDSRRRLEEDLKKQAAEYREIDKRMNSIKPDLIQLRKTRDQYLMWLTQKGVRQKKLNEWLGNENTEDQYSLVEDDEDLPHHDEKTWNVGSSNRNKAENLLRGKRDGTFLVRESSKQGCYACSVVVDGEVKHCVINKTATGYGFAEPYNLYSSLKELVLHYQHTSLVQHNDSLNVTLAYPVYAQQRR
Type: biochemical
Method: PI3K alpha kinase assay may be done using HTRF Transcreener ADP Assay (Cisbio).
Composition of the reaction buffer was as follows 50 mM HEPES, pH 7.5, 5 mM MgCl2, 1 mM DTT, 30 μM Na3VO4. PI3 Kinase was procured from Millipore Upstate. […] ATP was used at final concentration of 10 μM. Corning 384 well white plates were used for the assay.
2 μl of diluted enzyme (50 ng), 3 μl of diluted compound and 5 μl of buffer were added, mixed then incubated for 20 minutes with shaking at 400 rpm. 3 μl of substrate (10 μM of ATP and 5 μM PIP2) were added to initiate the reaction. The samples were incubated for 20 min. At the end of the reaction time 10 μl of the Detection mix (5 μl of ADP-D2 and 5 μl of Anti-ADP-Cryptate) was added and the contents were incubated for 1 h. The reaction plate was directly read in an Envision Multilabel Plate Reader.
C[C@H]1COCCN1c1nc(Oc2ccc(C(=O)N(C)C)cc2)nc(-c2cnc(N)s2)n1 [Compound 1003, 4-9-{[4-1-(2-22-amino-1,3-thiazol-5-yl)-6-5-(3-25-methylmorpholin-4-yl)-1,3,5-triazin-2-yl]oxy}-N,N-dimethylbenzamide] showed a pIC50 greater than 5.30. With CNC(=O)[C@H]1CC[C@@H](Nc2nc(-c3cccc4[nH]ncc34)nc(N3CCOCC3)n2)CC1 [Compound 1215, 4-((4-(1H-indazol-4-yl)-6-morpholino-1,3,5-triazin-2-yl)amino)-N-methylcyclohexanecarboxamide] the pIC50 was greater than 5.30. Molecule Cc1cc(N)ncc1-c1nc(Oc2ccc(C(=O)N(C)C)cc2)nc(N2CCOCC2)n1 [Compound 1022, 4-14-{[4-1-(6-17-amino-4-15-methylpyridin-3-yl)-6-5-(morpholin-4-yl)-1,3,5-triazin-2-yl]ioxy}-N,N-dimethylbenzamide] has a pIC50 of less than 5.30. For CC(C)(Nc1nc(-c2cccc(O)c2)nc(N2CCOCC2)n1)C(=O)O [Compound 1188, 2-((4-(3-hydroxyphenyl)-6-morpholino-1,3,5-triazin-2-yl)amino)-2-methylpropanoic acid], the pIC50 was greater than 5.30. CN(C)C(=O)CNc1nc(-c2cncc(O)c2)nc(N2CCOCC2)n1 [Compound 1150, 2-((4-(5-hydroxypyridin-3-yl)-6-morpholino-1,3,5-triazin-2-yl)amino)-N,N-dimethylacetamide] showed a pIC50 greater than 5.30. With NC(=O)CNc1nc(-c2cccc(O)c2)nc(N2CCOCC2)n1 [Compound 1181, 2-((4-(3-hydroxyphenyl)-6-morpholino-1,3,5-triazin-2-yl)amino)acetamide] the pIC50 was greater than 5.30. With CS(=O)(=O)N[C@H]1CC[C@H](Oc2nc(-c3cccc4[nH]ncc34)nc(N3CCOCC3)n2)CC1 [Compound 1095, N-[(1r,4r)-4-9-{[4-1-(1H-indazol-4-yl)-6-5-(morpholin-4-yl)-1,3,5-triazin-2-yl]oxy}cyclohexyl]methanesulfonamide] the pIC50 was greater than 5.30. With c1ccc(Nc2nc(-c3cccc4c3cnn4C3CCCCO3)nc(N3CCOCC3)n2)cc1 (centres unmarked) [Compound 1084, 4-morpholino-N-phenyl-6-(1-(tetrahydro-2H-pyran-2-yl)-1H-indazol-4-yl)-1,3,5-triazin-2-amine] the pIC50 was less than 5.30. In the case of CN(C)C(=O)CNc1nc(-c2cccc(C(F)F)c2)nc(N2CCOCC2)n1 [Compound 1137, 2-((4-(3-(difluoromethyl)phenyl)-6-morpholino-1,3,5-triazin-2-yl)amino)-N,N-dimethylacetamide], the pIC50 was less than 5.30. CN(C)C(=O)c1ccc(Oc2nc(-c3cccc4c(=O)[nH]ccc34)nc(N3CCOCC3)n2)cc1 [Compound 1033, N,N-dimethyl-4-14-{[4-5-(morpholin-4-yl)-6-1-(1-30-oxo-1,2-dihydroisoquinolin-5-yl)-1,3,5-triazin-2-yl]oxy}benzamide] gave a pIC50 of less than 5.30. With CS(=O)(=O)N1CCN(c2nc(-c3cccc4[nH]ncc34)nc(N3CCOCC3)n2)CC1 [Compound 1211, 4-7-[4-3-(4-16-methanesulfonylpiperazin-1-yl)-6-5-(morpholin-4-yl)-1,3,5-triazin-2-yl]-1H-indazole] the pIC50 was greater than 5.30. OC1CCN(c2nc(-c3cccc4[nH]ncc34)nc(N3CCOCC3)n2)CC1 [Compound 1220, 1-8-[4-1-(1H-indazol-4-yl)-6-5-(morpholin-4-yl)-1,3,5-triazin-2-yl]piperidin-4-ol] gave a pIC50 greater than 5.30. Nc1cccc(-c2nc(NCC(=O)O)nc(N3CCOCC3)n2)c1 [Compound 1199, 2-((4-(3-aminophenyl)-6-morpholino-1,3,5-triazin-2-yl)amino)acetic acid] showed a pIC50 of less than 5.30. With CN(C)C(=O)C(Cc1ccccc1)Nc1nc(-c2cccc3[nH]ncc23)nc(N2CCOCC2)n1 (centres unmarked) [Compound 1209, 2-((4-(1H-indazol-4-yl)-6-morpholino-1,3,5-triazin-2-yl)amino)-N,N-dimethyl-3-phenylpropanamide] the pIC50 was greater than 5.30. In the case of CC(Nc1nc(-c2cccc(NS(C)(=O)=O)c2)nc(N2CCOCC2)n1)C(=O)O (centres unmarked) [Compound 1138, 2-((4-(3-(methylsulfonamido)phenyl)-6-morpholino-1,3,5-triazin-2-yl)amino)propanoic acid], the pIC50 was less than 5.30. CS(=O)(=O)N1CCN(C(=O)CNc2nc(-c3cccc(O)c3)nc(N3CCOCC3)n2)CC1 [Compound 1089, 2-((4-(3-hydroxyphenyl)-6-morpholino-1,3,5-triazin-2-yl)amino)-1-(4-(methylsulfonyl)piperazin-1-yl)ethanone] was tested, and the pIC50 was greater than 5.30. For Cc1nc(-c2cccc3[nH]ncc23)nc(N2CCOCC2)n1 [Compound 1226, 4-7-[4-3-methyl-6-5-(morpholin-4-yl)-1,3,5-triazin-2-yl]-1H-indazole], the pIC50 was greater than 5.30. O=C1CCN(c2nc(-c3cccc4[nH]ncc34)nc(N3CCOCC3)n2)CC1 [Compound 1221, 1-8-[4-1-(1H-indazol-4-yl)-6-5-(morpholin-4-yl)-1,3,5-triazin-2-yl]piperidin-4-one] gave a pIC50 greater than 5.30. In the case of CC(C)(CO)Nc1nc(-c2cccc(O)c2)nc(N2CCOCC2)n1 [Compound 1155, 3-6-{4-3-[(1-hydroxy-2-methylpropan-2-yl)amino]-6-5-(morpholin-4-yl)-1,3,5-triazin-2-yl}phenol], the pIC50 was greater than 5.30. CN(C)C(=O)c1sccc1Nc1nc(-c2cccc3[nH]ncc23)nc(N2CCOCC2)n1 [Compound 1132, 3-((4-(1H-indazol-4-yl)-6-morpholino-1,3,5-triazin-2-yl)amino)-N,N-dimethylthiophene-2-carboxamide] was tested, and the pIC50 was greater than 5.30. In the case of CN(C)C(=O)c1cccc(Oc2nc(-c3cccc4[nH]ncc34)nc(N3CCOCC3)n2)c1 [Compound 1088, 3-22-{[4-1-(1H-indazol-4-yl)-6-5-(morpholin-4-yl)-1,3,5-triazin-2-yl]oxy}-N,N-dimethylbenzamide], the pIC50 was greater than 5.30. For CCN1CCC(Oc2nc(-c3cccc4[nH]ncc34)nc(N3CCOCC3)n2)CC1 [Compound 1149, 4-7-{4-3-[(1-25-ethylpiperidin-4-yl)oxy]-6-5-(morpholin-4-yl)-1,3,5-triazin-2-yl}-1H-indazole], the pIC50 was greater than 5.30. Molecule CN(C)C(=O)c1ccc(Oc2nc(NC3CCOCC3)nc(-c3cccc4[nH]ncc34)n2)cc1 [Compound 1057, 4-((4-(1H-indazol-4-yl)-6-((tetrahydro-2H-pyran-4-yl)amino)-1,3,5-triazin-2-yl)oxy)-N,N-dimethylbenzamide] has a pIC50 of less than 5.30. O=c1[nH]c2ccc(Oc3nc(-c4cccc5[nH]ncc45)nc(N4CCOCC4)n3)cc2[nH]1 [Compound 1086, 5-23-{[4-1-(1H-indazol-4-yl)-6-5-(morpholin-4-yl)-1,3,5-triazin-2-yl]oxy}-2,3-dihydro-1H-1,3-benzodiazol-2-one] gave a pIC50 greater than 5.30. CN(C)C(=O)[C@H]1CCCN1c1nc(-c2cccc3[nH]ncc23)nc(N2CCOCC2)n1 [Compound 1217, (2R)-1-7-[4-1-(1H-indazol-4-yl)-6-5-(morpholin-4-yl)-1,3,5-triazin-2-yl]-N,N-dimethylpyrrolidine-2-carboxamide] was tested, and the pIC50 was greater than 5.30. With CC1COCCN1c1nc(Oc2ccc(C(=O)N(C)C)cc2)nc(-c2cccc3[nH]ncc23)n1 (centres unmarked) [Compound 1098, 4-9-{[4-1-(1H-indazol-4-yl)-6-5-(3-28-methylmorpholin-4-yl)-1,3,5-triazin-2-yl]oxy}-N,N-dimethylbenzamide] the pIC50 was greater than 5.30. For CN(C)C(=O)CCNc1nc(-c2ccc(N)nc2)nc(N2CCOCC2)n1 [Compound 1104, 3-((4-(6-aminopyridin-3-yl)-6-morpholino-1,3,5-triazin-2-yl)amino)-N,N-dimethylpropanamide], the pIC50 was greater than 5.30. Molecule CN(C)C(=O)c1ccc(Oc2nc(-c3cccc4[nH]ncc34)nc(N3CC4(COC4)C3)n2)cc1 [Compound 1055, 4-8-{[4-5-(1H-indazol-4-yl)-6-3-{2-oxa-6-azaspiro[3.3]heptan-6-yl}-1,3,5-triazin-2-yl]oxy}-N,N-dimethylbenzamide] has a pIC50 of less than 5.30. CN(C)C(=O)Cc1ccc(Oc2nc(-c3cccc4[nH]ncc34)nc(N3CCOCC3)n2)cc1 [Compound 1085, 2-27-(4-14-{[4-1-(1H-indazol-4-yl)-6-5-(morpholin-4-yl)-1,3,5-triazin-2-yl]oxy}phenyl)-N,N-dimethylacetamide] was tested, and the pIC50 was greater than 5.30. In the case of Nc1nc(-c2cccc(O)c2)nc(N2CCOCC2)n1 [Compound 1139, 3-8-[4-3-amino-6-5-(morpholin-4-yl)-1,3,5-triazin-2-yl]phenol], the pIC50 was greater than 5.30. CN(C)C(=O)c1cccc(Nc2nc(-c3cccc4[nH]ncc34)nc(N3CC(C(N)=O)C3)n2)c1 [Compound 1056] gave a pIC50 of less than 5.30. O=C(O)CNc1nc(-c2cccc3c2CCC3=O)nc(N2CCOCC2)n1 [Compound 1078, 2-((4-morpholino-6-(1-oxo-2,3-dihydro-1H-inden-4-yl)-1,3,5-triazin-2-yl)amino)acetic acid] gave a pIC50 of less than 5.30. CC(C)C(=O)Nc1ccc(Oc2nc(-c3cccc4[nH]ncc34)nc(N3CCOCC3)n2)cc1 [Compound 1107, N-(4-14-{[4-1-(1H-indazol-4-yl)-6-5-(morpholin-4-yl)-1,3,5-triazin-2-yl]oxy}phenyl)-2-30-methylpropanamide] gave a pIC50 greater than 5.30. N[C@H]1CC[C@H](Oc2nc(-c3cccc4[nH]ncc34)nc(N3CCOCC3)n2)CC1 [Compound 1152, (1r,4r)-4-9-{[4-1-(1H-indazol-4-yl)-6-5-(morpholin-4-yl)-1,3,5-triazin-2-yl]oxy}cyclohexan-1-amine] showed a pIC50 greater than 5.30. Cc1c(Nc2nc(-c3cccc4[nH]ncc34)nc(N3CCOCC3)n2)cccc1C(N)=O [Compound 1186, 3-((4-(1H-indazol-4-yl)-6-morpholino-1,3,5-triazin-2-yl)amino)-2-methylbenzamide] gave a pIC50 greater than 5.30.
